Laboratory results from patent US10213464B2, “Method for enhancing engraftment of haematopoetic stem cells” (SCIPHARM SARL, priority 2011, dated 2019).

Experiments:
[1] = tested on: (Lin−, c-Kit+, Sca-1+) haematopoetic stem cells; assay: [3H]cAMP accumulation assay in haematopoetic stem cells; type: cell-based, mouse; details: for cAMP accumulation, compound per se: without forskolin, FIG. 4, FIG. 5
Method: Ten mice (C57BL/6) were sacrificed by cervical dislocation. The long bones of the hind limbs (i.e., femora and tibiae) were freed of muscle and connective tissue and flushed with RPMI medium using a syringe and 27½ G needle. The cell suspension was freed from visible connective tissue, collected and transferred to centrifuge tubes. Cells were harvested by centrifugation (1,200 rpm/˜100 g for 5 min) and resuspended in 3 mL erythrocyte lysis buffer (0.15 M NH4Cl, 10 mM KHCO3, 0.1 mM EDTA, pH adjusted to 7.2 to 7.4). The cell suspension was incubated for 2 min at 20° C. followed by 4 min on ice. Thereafter, RPMI (10 mL) was added and the cells were harvested by centrifugation and counted. […] Cells were resuspended in ice-cold PBS (phosphate buffered saline) containing 2% FCS (fetal calf serum) at a cell density of 2.5*10^8 cells/mL to which a cocktail of biotinylated antibodies (“Lineage Cell Depletion Kit” of Miltenyi Biotec) containing lineage-specific antibodies directed against CD5, CD45R (B220), CD11b, GR-1 (=Ly-6G/C), 7-4, and Ter-119 at a ratio of 0.1 mL antibody solution per 10^8 cells. Cells were incubated for 20 min on ice with the antibodies and pelleted by centrifugation. […] Thereafter, the sample was diluted in MACS-buffer (30 mL), the cells were collected by centrifugation and resuspended in 6 mL of MACS-buffer. This suspension was loaded onto prepacked LS columns, which contain ferromagnetic beads coated with a cell-compatible plastic material. Typically three columns were employed for (2 mL cells suspension/column). The flow-through contained the lineage marker-negative cells (Lin^− cells), while the lineage committed cells were retained on the column. Cells were pelleted by centrifugation and resuspended in […]. Lin^−/sca1^+-cells were incubated in 1 mL of stem cell medium (Stem Span SFEM, Stem Cell Tech #09650) containing 0.5 mg/L each, benzylpenicillin and streptomycin, 50 ng/mL each murine stem cell factor (mSCF), human Flt-3, hIL-11 50 ng/mL, m-IL3 (10 ng/mL) (all from PreProTech) 10 μg/mL adenosine deaminase (Roche) and [^3H]adenine (Perkin Elmer, 1 μCi/mL). The preincubation lasted for 4 h at 37° C. […] The cells were then pelleted (5 min at 100 g), the medium was removed and the pellet was lysed in ice-cold 2.5% perchloric acid (0.9 mL) containing 0.1 mM cAMP, held on ice for 1 h and neutralized with 4.2 M KOH (0.1 mL)). Lineage marker-positive cells were preincubated in a similar manner but the medium contained RMPI instead of serum-free stem cell medium. ATP and cAMP were separated by sequential chromatography on columns containing Dowex AG50-X8 and neutral alumina (12). The fact that differences can only be seen in the presence of forskolin is a technical problem—the signal is too low in the absence of forskolin-sensitization to see any differences between the different compounds, i.e. ilo-, beraprost and treprostinil. Sensitization means that cells are sensitized for receptor response as these cells contain extremely low cAMP.

[2] = molecular target: EP4-receptors (Homo sapiens, UniProt P35408); details: reference 10; cited from earlier work
[3] = tested on: Lin− (Sca1+ and c-Kit+) haematopoetic stem cells; assay: Bone marrow transplantation: reconstitution of bone marrow in lethally irradiated mice by ex vivo pretreated stem cells; details: FIG. 6
[4] = tested on: Lin+ haematopoetic cell fraction; assay: [3H]cAMP accumulation assay in lineage marker-positive cells; type: cell-based, mouse; details: data not shown
Method: Ten mice (C57BL/6) were sacrificed by cervical dislocation. The long bones of the hind limbs (i.e., femora and tibiae) were freed of muscle and connective tissue and flushed with RPMI medium using a syringe and 27½ G needle. The cell suspension was freed from visible connective tissue, collected and transferred to centrifuge tubes. Cells were harvested by centrifugation (1,200 rpm/˜100 g for 5 min) and resuspended in 3 mL erythrocyte lysis buffer (0.15 M NH4Cl, 10 mM KHCO3, 0.1 mM EDTA, pH adjusted to 7.2 to 7.4). The cell suspension was incubated for 2 min at 20° C. followed by 4 min on ice. Thereafter, RPMI (10 mL) was added and the cells were harvested by centrifugation and counted. The typical yield of cells was 3*10^7/mouse. Cells were resuspended in ice-cold PBS (phosphate buffered saline) containing 2% FCS (fetal calf serum) at a cell density of 2.5*10^8 cells/mL to which a cocktail of biotinylated antibodies (“Lineage Cell Depletion Kit” of Miltenyi Biotec) containing lineage-specific antibodies directed against CD5, CD45R (B220), CD11b, GR-1 (=Ly-6G/C), 7-4, and Ter-119 at a ratio of 0.1 mL antibody solution per 10^8 cells. Cells were incubated for 20 min on ice with the antibodies and pelleted by centrifugation. […]

[5] = molecular target: EP2-receptors (Homo sapiens, UniProt P43116); details: reference 10; cited from earlier work
[6] = molecular target: T1, EP3-receptors (Homo sapiens, UniProt P43115); details: Gi-coupled, inhibit cAMP accumulation; cited from earlier work
T1 sequence (P43115 1-390): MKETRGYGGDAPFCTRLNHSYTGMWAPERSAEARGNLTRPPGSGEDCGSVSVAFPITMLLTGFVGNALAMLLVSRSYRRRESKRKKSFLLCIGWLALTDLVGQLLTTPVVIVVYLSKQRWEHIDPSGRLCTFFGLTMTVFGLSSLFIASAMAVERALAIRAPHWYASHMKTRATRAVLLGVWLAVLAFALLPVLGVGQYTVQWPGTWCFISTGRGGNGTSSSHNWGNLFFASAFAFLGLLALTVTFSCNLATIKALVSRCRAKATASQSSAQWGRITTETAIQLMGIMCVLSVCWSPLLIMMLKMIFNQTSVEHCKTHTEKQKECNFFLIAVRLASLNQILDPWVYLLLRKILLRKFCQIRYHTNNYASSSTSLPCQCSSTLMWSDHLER

[7] = tested on: haematopoetic stem cells; details: references 7, 8; cited from earlier work
[8] = tested on: haematopoetic stem cells; details: in vivo; cited from earlier work

Sequence of EP2-receptors (P43116 whole entry): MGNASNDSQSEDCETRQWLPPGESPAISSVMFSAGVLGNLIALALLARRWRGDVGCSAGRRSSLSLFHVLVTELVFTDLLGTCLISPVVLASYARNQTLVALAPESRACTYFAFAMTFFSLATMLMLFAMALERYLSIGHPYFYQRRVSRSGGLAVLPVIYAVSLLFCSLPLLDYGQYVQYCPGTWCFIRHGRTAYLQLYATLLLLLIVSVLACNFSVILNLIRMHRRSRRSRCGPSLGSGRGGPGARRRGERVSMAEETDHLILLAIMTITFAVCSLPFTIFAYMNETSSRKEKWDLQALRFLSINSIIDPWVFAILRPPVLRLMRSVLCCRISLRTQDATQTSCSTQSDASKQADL
Sequence of EP4-receptors (P35408 whole entry): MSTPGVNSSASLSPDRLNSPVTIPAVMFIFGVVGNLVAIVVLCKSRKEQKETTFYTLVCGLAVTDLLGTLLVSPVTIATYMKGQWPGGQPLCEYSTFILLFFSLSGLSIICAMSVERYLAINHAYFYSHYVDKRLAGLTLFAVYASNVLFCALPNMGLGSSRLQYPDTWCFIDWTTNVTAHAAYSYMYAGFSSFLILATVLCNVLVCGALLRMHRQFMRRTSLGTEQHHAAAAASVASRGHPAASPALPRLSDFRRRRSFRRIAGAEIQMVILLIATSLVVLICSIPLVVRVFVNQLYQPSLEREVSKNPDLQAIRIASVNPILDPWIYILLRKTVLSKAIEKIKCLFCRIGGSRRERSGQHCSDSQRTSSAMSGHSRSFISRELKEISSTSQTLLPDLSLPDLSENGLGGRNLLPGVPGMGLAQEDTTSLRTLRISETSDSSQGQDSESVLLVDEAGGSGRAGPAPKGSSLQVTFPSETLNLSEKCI

CC#CCC(C)C(O)C=CC1C(O)CC2Oc3c(CCCC(=O)O)cccc3C21 (stereo not shown) [Beraprost, 2,3,3a,8b-tetrahydro-2-hydroxy-1-(3-hydroxy-4-methyl-1-octen-6-ynyl)-1H-cyclopenta(b)benzofuran-5-butanoic acid]
cAMP accumulation, compound per se ([1]; stimulation 1 h): modest accumulation of cAMP

CC#CCC(C)[C@H](O)/C=C/[C@@H]1[C@H]2C/C(=C/CCCC(=O)O)C[C@H]2C[C@H]1O (stereo partly drawn) [Iloprost, 5-{(E)-(1S,5S,6R,7R)-7-hydroxy-6[(E)-(3S, 4RS)-3-hydroxy-4-methyl-1-octen-6-inyl]-bi-cyclo[3.3.0]octan-3-ylidene}pentanoic acid]
cAMP accumulation, compound per se ([1]; stimulation 1 h): modest accumulation of cAMP

CCCCC[C@H](O)CC[C@@H]1[C@H]2Cc3cccc(OCC(=O)[O-])c3C[C@H]2C[C@H]1O.[Na+] [Treprostinil, (1R,2R,3aS,9aS)-[[2,3,3a,4,9,9a-hexahydro-2-hydroxy-1-[(3S)-3-hydroxyoctyl]-1H-benz[f]inden-5-yl]oxy]acetic acid monosodium salt]
stimulation of EP4-receptors [2]: stimulates
level of circulating white blood cells ([3]; day 60 after injection of 3*10^5 cells pretreated ex vivo with 10 μM for 1 h at 37° C., versus vehicle-treated cells): significantly higher levels of circulating white blood cells
effectiveness compared with positive control cholera toxin ([3]; ex vivo pretreatment, white blood cell count): as effective as the positive control cholera toxin
cAMP levels in Lin+ cells [4]: failed to increase cAMP levels
concentration range of concentration-dependent accumulation of cAMP ([1]; FIG. 5): 0.1 to 10 µM
EC50 ([1]; Mus musculus, concentration-response curve, FIG. 5, read-out: estimated EC50 of cAMP accumulation): ~300 nM
increase in cAMP levels when combined with forskolin ([1]; combined with forskolin, stimulation 1 h, FIG. 4): exceeded that caused by the IP-(I prostanoid) receptor-specific compounds Iloprost and Beraprost
cAMP accumulation, compound per se ([1]; stimulation 1 h, listed as Trepostinil, monosodium salt): increase of cAMP is significant
cAMP accumulation, compound per se ([1]; stimulation 1 h, monosodium salt): modest accumulation of cAMP
stimulation of EP2-receptors [5]: stimulates
agonism at EP3-receptors [6]: low affinity agonist

CCCCC(C)(C)[C@H](O)/C=C/[C@H]1[C@H](O)CC(=O)[C@@H]1C/C=C\CCCC(=O)O [dimethyl-PGE2]
engraftment after pretreatment [7]: enhances their engraftment
agonism at EP3-receptors [6]: full agonist

cholera toxin
(Lin−) precursor cells in the bone marrow after pretreatment [8]: about twice as many
